From PMC7674464, “Effect of pH on the influenza fusion peptide properties unveiled by constant-pH molecular dynamics simulations combined with experiment” (Scientific Reports, 2020)
Like-named read-outs stand apart in the source and are kept apart here. Where no end group is shown, it is not given here.

Tests used:
Asp19 = Asp19 (UniProt position 362, WTGMIDGWYGY); test: NMR; conditions: micelle-bound peptide with lysine tail; cited from earlier work
Glu11 = Glu11 (UniProt position 354, IAGFIEGGWTG); test: NMR; conditions: micelle-bound peptide with lysine tail; cited from earlier work
Nterm1 = Nterm1 (UniProt position 344, SIQSRGLFGAI); test: NMR; conditions: micelle-bound peptide with lysine tail; cited from earlier work
[1] = not given; remark: listed apart in the source
[2] = 16000 nM, pH 7.4

| Substance | pKa (Asp19) | pKa (Glu11) | pKa (Nterm1) | amide I band peak position | partition coefficient (Kp) between the aqueous and lipid phases ([1]; pH 5) | partition coefficient (Kp) between the aqueous and lipid phases ([1]; pH 7.4) | percentage of lipid mixing [2] |
| --- | --- | --- | --- | --- | --- | --- | --- |
| Influenza hemagglutinin HA2 fusion peptide (HAfp23) with C-terminal hydrophilic lysine tail (Influenza A virus (subtype H1; strain not stated)) | 4.35 | 5.31 | 8.8 | – | – | – | – |
| GLFGAIAGFIEGGWTGMIDGWYGS [influenza fusion peptide] | – | – | – | 1660 cm⁻¹ | (1.0 ± 0.1) × 10^4 | (2.9 ± 0.4) × 10^4 | 23.9 ± 1.8% |
